Test results from ChEMBL document CHEMBL1140395, “Diamino-C,N-diarylpyridine positional isomers as inhibitors of lysophosphatidic acid acyltransferase-beta” (Bioorg Med Chem Lett, 2005).
pIC50: −log10 of the molar value. Several values for one entry are separate records, joined by “and”; a condition that tells them apart may be missing. Equal entries are not always repeated.

biological target: T1, 1-acyl-sn-glycerol-3-phosphate acyltransferase beta (Homo sapiens, UniProt O15120); assay: Inhibitory activity against Lysophosphatidic acid acyltransferase-beta enzyme over-expressed in Sf9 insect cell membrane
T1 sequence (O15120 whole entry): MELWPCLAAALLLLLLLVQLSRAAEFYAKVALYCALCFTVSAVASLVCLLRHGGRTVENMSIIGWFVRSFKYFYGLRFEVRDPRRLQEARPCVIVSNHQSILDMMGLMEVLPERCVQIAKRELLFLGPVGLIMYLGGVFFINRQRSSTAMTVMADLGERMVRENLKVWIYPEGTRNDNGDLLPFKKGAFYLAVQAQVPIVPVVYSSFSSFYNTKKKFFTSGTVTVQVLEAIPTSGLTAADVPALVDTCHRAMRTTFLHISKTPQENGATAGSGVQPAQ

pIC50	Structure (SMILES)
5.69	COc1ccc(Cl)cc1-c1cc(N)nc(Nc2ccc(Cl)cc2)n1
7.15 and 7.35	COc1ccc(Cl)cc1-c1nc(N)nc(Nc2ccc(Cl)cc2)n1
6.59	CCOc1ccc(Cl)cc1-c1nc(N)nc(Nc2ccc(Cl)cc2)n1
< 4.40	COc1ccc(Cl)cc1-c1cc(Nc2ccc(C)cc2)cc(N)n1
